What was measured:
ACHN-VHL shRNA cells = experiment: In vitro growth (cell counts), VHL knockdown cells; format: cell-based, human
Experimental: (§1) FIGS. 1A-1E. Effects of VHL knockdown on sensitivity to CCI-779. (a) Immunoblotting of lysates derived from shRNA and control (empty vector, V) in SN12C, using antibodies against VHL (both isoforms detected), HIF-1α, HIF-2α, GLUT-1, CA-IX and β-Actin (as a loading control). (b) SN12C-CSCG and SN12C-VHLshRNA cells (1×10^5) were cultured in 10% serum rich media, in the presence of vehicle, 1 or 10 nM of CCI-779 for 5 days. Cell growth was measured by cell counts (n=3). […] (c) SN12C-CSCG (C1) and SN12C-CSCG shVHL RNA (C2) cells were injected into SCID mice at a dose of 1×10^6 cells per mouse (n=30). When tumor volume reached 150 mm^3, mice were randomized to daily treatment with vehicle or 0.1 mg/kg of CCI-779. The change in tumor volume is plotted. Phosphorylated-S6 protein in SN12C-CSCG and SN12C-VHL shRNA xenograft tumors treated with vehicle or 0.1 mg/kg of CCI-779 was measured by immunoblot C3 and C4). Equal loading verified by actin immunoblots. […] (e) Schematic of shRNA-expressing lentivirus directed against VHL in pCSCG vector.
(§2) For in vitro experiments, cells (5×10^4) were plated and treated with 1 and 10 nM CCI-779 (kind gift of J. Gibbons, Wyeth) or vehicle (ethanol). On day 5-post treatment, cells were trypsinized, resuspended in DMEM with 10% FBS and counted using the VI CELL counter (Beckman Coulter), according to the manufacturer's instructions. Cell counts were done in triplicate and repeated on at least 3 independent occasions. In vivo tumorigenicity was measured by injection of 5×10^5 SN12C-CSCG, ACHN-CSCG, SN12C-CSCG-VHLshRNAi, ACHN-CSCG-VHLshRNAi, SN12C-CSCG-VHLshRNAi-pBABE, SN12C-CSCG-VHLshRNAi-pBABE-HA-HIF-2α (P405A; P531A) cells in 100 μl of Matrigel (Collaborative Biomedical) subcutaneously into the flanks of SCID mice. Tumor size were measured weekly in three dimensions using calipers as described (Klein, K. A. et al. Nat Med 3, 402-8 (1997)). When tumors reached 200 mm^3, all tumors received 0.1 mg/kg/daily of CCI-779 or vehicle. All mouse experiments were performed in compliance with the guidelines of the Animal Research Committee of the University of California at Los Angeles.
(§3) SN12C and ACHN (NCI60, DTP) were maintained in Dulbecco's modified Eagle's Medium (DMEM) supplemented with 10% FBS. […] On day 5-post treatment, cells were trypsinized, resuspended in DMEM with 10% FBS and counted using the VI-Cell XR automated cell viability analyzer (Beckmann Coulter). […] In vivo tumorigenicity was measured by injection of 5×10^5 SN12C-CSCG, ACHN-CSCG, SN12C-CSCG-VHL shRNA, ACHN-CSCG-VHL shRNA, SN12C-CSCG-VHL shRNA-pBABE, SN12C-CSCG-VHL shRNA-pBABE-HA-HIF-2α (P405A; P531A) cells in 100 μl of Matrigel (Collaborative Biomedical) subcutaneously into the flanks of SCID mice. Tumor size were measured weekly in three dimensions using calipers as described. […]

SN12C-VHL shRNA cells = experiment: In vitro growth (cell counts), VHL knockdown cells; format: cell-based, human
Experimental: as §1, §2, §3

[1] = dose-dependent, 1 and 10 nM CCI-779, day 5

SMILES: CO[C@H]1C[C@@H]2CC[C@@H](C)[C@@](O)(O2)C(=O)C(=O)N2CCCC[C@H]2C(=O)O[C@H]([C@H](C)C[C@@H]2CC[C@@H](OC(=O)C(C)(CO)CO)[C@H](OC)C2)CC(=O)[C@H](C)/C=C(\C)[C@@H](O)[C@@H](OC)C(=O)[C@H](C)C[C@H](C)/C=C/C=C/C=C/1C [CCI-779]
- sensitivity to CCI-779 after stable VHL knockdown (ACHN-VHL shRNA cells; FIG. 1D): enhanced sensitivity
- reduction of cell growth (ACHN-VHL shRNA cells; [1]): 70%
- sensitivity to CCI-779 in contrast to the parental cells (SN12C-VHL shRNA cells; 1 and 10 nM, in vitro): increased sensitivity
- reduction of cell growth (SN12C-VHL shRNA cells; [1]): 70%

Source: patent US9261498B2, “Biomarker for sensitivity to mTOR inhibitor therapy in kidney cancer” (The Regents of the University of California, priority 2005, dated 2016)
